In patent publication US20100048462A1, “TRUNCATED PTH PEPTIDES WITH A CYCLIC CONFORMATION” (Zealand Pharma A/S, priority 2006, published 2010):
“Also recorded” adds a separate entry of the source. Bridge positions count the residues as written; N and C are the ends. Square brackets hold non-standard residues; d marks the D form. Peptide text beside a SMILES is read from it. I, II: the chains in the order shown. hArg = N=C(N)NCCCC[C@H](N)C(=O)O; Ac5c = NC1(C(=O)O)CCCC1; Aib = CC(C)(N)C(=O)O

Experiments:
ovariectomized (OVX) rat [1] = experiment: OVX rat model, bone mineral density by DEXA; type: in vivo; parameters: increase in BMD in the femoral shaft compared to vehicle-treated OVX animals: unit not given here; details: for BMD proximal tibia (18% bone loss in OVX animals): FIG. 6, SEQ ID NO: 19 20-320, SEQ ID NO: 33 5 nmol/kg; for BMD proximal tibia (18% bone loss in OVX animals) / BMD in lumbar vertebrae L1-L2 relative to vehicle-treated OVX and sham animals: s.c. 6 weeks; for BMD in lumbar vertebrae L1-L2 relative to vehicle-treated OVX and sham animals: FIG. 7; for BMD compared to vehicle-treated OVX animals: all doses; for increase in BMD in the femoral shaft compared to vehicle-treated OVX animals / BMD in the femoral shaft: FIG. 9; for BMD in the femoral shaft: site rich in cortical bone
Source text: The ovariectomiced(OVX) rat may be used to test the effect of the PTH analogues on osteopenia/osteoporosis in vivo. The OVX rat develop osteopenia due to ovarian hormone deficiency. Osteopenia can be detected as early as 14 days post OVX, increase for the next 100 days and then stabilized (Wronski T J et al., Calcif. Tissue Int., 43(3): 179-183, 1988). The OVX rat model is considered the “golden standard” by both authorities and industry as a model for osteoporosis (Peter C, Rodan G A. Preclinical safety profile of alendronate. Int j Clin Pract Suppl 1999; 101:3-8, and Stewart A F, Cain R L, Burr D B, Jacob D, Turner C H, Hock J M).
(§1) One hundred and seventy-eight female Fisher rats were used for the experiment. Initially the animals were housed in Macrolon type 3 cages (2 rats/cage) under controlled conditions (20° C., 55-85% humidity) following a 12:12-hrs light/dark cycle with light on at 6 am. The animals were fed ad libitum with standard Altromin No. 1324 diet (Chr. Petersen, Ringsted, Denmark). The animals had free access to drinking water (domestic quality tap water added citric acid to pH≈3). At the time of inclusion the animals were 6 months old.
(§2) The week before OVX the animals were stratified according to body weight into two groups that were subjected to either OVX (140 animals) or sham operation (38 animals). Rats were anaesthetized with Hypnorm-Dormicum and the ovariectomy was performed through a midline laparotomy. Sham-operated animals were subjected to midline laparotomy, and the ovaries were exposed but not removed (sham). This group served as an age matched non-osteoporotic control group. A microchip was implanted into each rat during surgery, in order to allow identification of the animals.
(§3) To allow osteopenia to develop before treatment start, animals were housed for 7 weeks (pre-treatment period) without pharmacological treatment. At the end of the pre-treatment period, sham- and OVX-operated rats were stratified according to bodyweight and divided into six groups of 13-20 animals each (Table 7). At this point, one OVX group (N=20) and one sham group (N=20) were sacrificed. These control groups established baseline levels of bone mineral density (BMD). Furthermore, samples were stored for possible later analysis of bone markers, bone strength, histomorphometry and μCT scans.
(§4) For the following 6 weeks one sham group and one OVX group were subjected to vehicle administration (40 mM sodium acetate, 45 mM histidine and 3.9% mannitol, pH 5.5, 300 mOsm/kg). Five OVX groups were treated with increasing doses of the cyclic PTH(1-17) analogue SEQ ID NO: 19. Another OVX group was treated with SEQ ID NO: 33 (Table 7). All drugs were given as s.c. injections. After 6 weeks of treatment the animals were sacrificed. Spine, tibia and femur were collected for analysis of BMD by DEXA-scan and bone samples were stored for later bone strength measurements.
(§5) Lumbar vertebrae (L4-L5-L6-S1), left femur and tibia were collected, cleaned, packed in saline moistened gaze in a tube and stored at −20° C. for later ex vivo bone strength measurements. Right femur and tibia as well as lumbar vertebrae (T13-L1-L2-L3) and caudal vertebrae (S2-S3-C1-C2-C3) were collected, cleaned and stored in 70% ethanol for analysis of bone mineral density (BMD) and possible later histomorphometry and/or μCT scanning.
Ex vivo BMD measurements were performed at the end of the study using a Lunar Piximus II densitometer (GE Healthcare, Chalfont St. Giles, UK) with a precision of 1.5%. Calibration of the instrument was performed with an aluminium/Lucite phantom.
Tibiae, femora and lumbar (L1-L2) and sacral/caudal (S3-C1) spine fragments were placed on the imaging positioning tray and scanned four times. All specimens were placed in a similar orientation for correct comparison. Regions of interest (ROI) were generated on the scans using the Piximus image analysis software provided with the instrument. […]

ovariectomized (OVX) rat [2] = experiment: OVX rat model, bone strength measurements; type: in vivo; details: for bone strength of the femoral head in a compression test: FIG. 10; for bone strength of the femoral head in a compression test / bone strength of the femur in a three-point bending test versus vehicle-treated OVX animals: all doses; for bone strength of the femur, shaft region and femoral head region, versus vehicle-treated OVX-group: FIGS. 10 and 11
Procedure: as §1, §2, §3, §4, §5
Bone strength measurements were performed on a compression device (Lloyd Instruments, Fareham, UK). Bones were positioned with the help of custom-made holders, in order to achieve maximal reproducibility. Maximal force to fracture was determined.
Overall comparison among groups was performed using one-way ANOVA for one-way classified data (BMD). For individual comparisons among groups, post-hoc analysis was performed using Fisher's least significant difference test. Differences were considered significant at the 5% level. All data are presented as mean±SEM.

[3] = doses greater than 20 nmol/kg/d

CC[C@H](C)[C@H](NC(=O)[C@H](CCC(=O)O)NC(=O)C(C)(C)NC(=O)[C@@H](NC(=O)C1(N)CCCC1)C(C)C)C(=O)N[C@@H](CCC(N)=O)C(=O)N[C@@H](CC(C)C)C(=O)N[C@@H](CC(C)C)C(=O)N[C@@H](Cc1c[nH]cn1)C(=O)N[C@@H](CCC(N)=O)C(=O)N[C@@H](CCCCNC(=N)N)C(=O)N[C@@H](C)C(=O)N[C@H]1CCCCNC(=O)C[C@@H](C(N)=O)NC(=O)[C@H](CC(N)=O)NC(=O)[C@H](CC(C)C)NC(=O)[C@H](Cc2c[nH]c3ccccc23)NC1=O [SEQ ID NO: 19, H-Ac5c-Val-Aib-Glu-Ile-Gln-Leu-Leu-His-Gln-Har-Ala-Lys( )-Trp-Leu-Asn-Asp( )-NH2] (H-[Ac5c]V[Aib]EIQLLHQ[hArg]AKWLND-NH2; lactam 13-17)
bone mineral densities at the lowest dose (ovariectomized (OVX) rat [1]; 20 nmol/kg/d): at least normalization
bone mineral density versus vehicle-treated ovariectomized rats, regardless of site (ovariectomized (OVX) rat [1]; 20 nmol/kg/d to 320 nmol/kg/d s.c., 6 weeks): significantly higher bone mineral density
BMD proximal tibia (18% bone loss in OVX animals) (ovariectomized (OVX) rat [1]; OVX rats): completely reversed
BMD in lumbar vertebrae L1-L2 relative to vehicle-treated OVX and sham animals (ovariectomized (OVX) rat [1]; OVX rats): improved
BMD compared to vehicle-treated OVX animals (ovariectomized (OVX) rat [1]; FIG. 8): significantly increased
BMD over sham control levels (ovariectomized (OVX) rat [1]; FIG. 8, doses higher than 20 nmol/kg/d): significantly increased over sham control levels
increase in BMD in the femoral shaft compared to vehicle-treated OVX animals (ovariectomized (OVX) rat [1]): about 81
BMD in the femoral shaft (ovariectomized (OVX) rat [1]): improved
bone-anabolic activity in cortical and trabecular bone (ovariectomized (OVX) rat [1]; OVX rats): showed bone-anabolic activity
bone mineral density versus vehicle-treated sham-operated rats (ovariectomized (OVX) rat [1]; [3]): bone mineral densities higher than in vehicle-treated sham-operated rats
bone strength of the femoral head in a compression test (ovariectomized (OVX) rat [2]): higher than in vehicle-treated OVX and sham animals at all doses
bone strength of the femur in a three-point bending test versus vehicle-treated OVX animals (ovariectomized (OVX) rat [2]; FIG. 11): higher than in vehicle-treated OVX animals at all doses
bone strength of the femur in a three-point bending test versus vehicle-treated sham animals (ovariectomized (OVX) rat [2]; FIG. 11, doses higher than 20 nmol/kg/d): increased strength compared to vehicle-treated sham animals
bone strength of the femur, shaft region and femoral head region, versus vehicle-treated OVX-group (ovariectomized (OVX) rat [2]): significantly increased
bone strength versus vehicle-treated sham-operated group (ovariectomized (OVX) rat [2]; [3]): significantly increased

CC[C@H](C)[C@H](NC(=O)[C@H](CCC(=O)O)NC(=O)C(C)(C)NC(=O)[C@@H](NC(=O)C1(N)CCCC1)C(C)C)C(=O)N[C@@H](CCC(N)=O)C(=O)N[C@@H](CC(C)C)C(=O)N[C@@H](CCSC)C(=O)N[C@@H](Cc1c[nH]cn1)C(=O)N[C@@H](CCC(N)=O)C(=O)N[C@@H](CCCCNC(=N)N)C(=O)N[C@@H](C)C(=O)N[C@H]1CCCCNC(=O)C[C@@H](C(N)=O)NC(=O)[C@H](CC(C)C)NC(=O)[C@H](Cc2c[nH]c3ccccc23)NC(=O)[C@@H](NC(=O)[C@H](C)NC(=O)[C@H](CCCCNC(=N)N)NC(=O)[C@H](CCC(N)=O)NC(=O)[C@H](Cc2c[nH]cn2)NC(=O)[C@H](CCSC)NC(=O)[C@H](CC(C)C)NC(=O)[C@H](CCC(N)=O)NC(=O)[C@@H](NC(=O)[C@H](CCC(=O)O)NC(=O)C(C)(C)NC(=O)[C@@H](NC(=O)C2(N)CCCC2)C(C)C)[C@@H](C)CC)CCCCNC(=O)C[C@@H](C(N)=O)NC(=O)[C@H](CC(C)C)NC(=O)[C@H](Cc2c[nH]c3ccccc23)NC1=O [SEQ ID NO: 33, (H-Ac5c-Val-Aib-Glu-Ile-Gln-Leu-Met-His-Gln-Har-Ala-Lys( )-Trp-Leu-Asp( )-NH2)2] (I: H-[Ac5c]V[Aib]EIQLMHQ[hArg]AKWLD-NH2 / II: H-[Ac5c]V[Aib]EIQLMHQ[hArg]AKWLD-NH2; amide I:13-II:16, I:16-II:13 (inferred))
bone mineral density versus vehicle-treated ovariectomized rats, all sites tested (ovariectomized (OVX) rat [1]; 5 nmol/kg/d s.c., 6 weeks): significant increases; also recorded: significantly increased
BMD proximal tibia (18% bone loss in OVX animals) (ovariectomized (OVX) rat [1]; OVX rats): completely reversed
BMD in lumbar vertebrae L1-L2 relative to vehicle-treated OVX and sham animals (ovariectomized (OVX) rat [1]; OVX rats): improved
BMD compared to vehicle-treated OVX animals (ovariectomized (OVX) rat [1]; FIG. 8): significantly increased
increase in BMD in the femoral shaft compared to vehicle-treated OVX animals (ovariectomized (OVX) rat [1]): about 81
BMD in the femoral shaft (ovariectomized (OVX) rat [1]): improved
bone strength compared to vehicle-treated OVX-group (ovariectomized (OVX) rat [2]; 5 nmol/kg/d): significantly increased
bone strength of the femoral head in a compression test (ovariectomized (OVX) rat [2]): higher than in vehicle-treated OVX and sham animals at all doses
bone strength of the femur in a three-point bending test versus vehicle-treated OVX animals (ovariectomized (OVX) rat [2]; FIG. 11): higher than in vehicle-treated OVX animals at all doses
bone strength of the femur, shaft region and femoral head region, versus vehicle-treated OVX-group (ovariectomized (OVX) rat [2]): significantly increased
